Assay results taken from patent publication EP0603412A1, “COMPOUNDS BASED ON PALLADIUM AND ON DERIVATIVES OF AROMATIC AMINES AND METHOD OF OBTAINING THEM” (priority 1992, dated 1993).
Where two headings read alike, the source gives them in different places.

What was measured:
[1] = tested on: male hybrid mice F₁(CBAxC₅₇BL); experiment: Radiomodifying effect under single total γ-irradiation (survival, LD50/8, LD50/30, DCF); type: in vivo; conditions: for DCF: based on LD50/30; for LD50/30: mouse, in vivo
Experimental: About two thousands animals have been used in tests.
Before irradiation control group of animals was intravenously administered isotonic saline solution in amount of 0.3 ml per mouse.
(§1) The mice were placed into the glass containers inserted into irradiation zone. The radiation sources were arranged in the form of "squirrel cage". The radiation doses were established by duration of the stay in active zone. […] The animals were irradiated in the range from 4.0 to 10 Gr.
(§2) A survival rate was determined on the 8th and 30th day of observation. From the data obtained were derived the curves illustrating a dependence of the survival rate upon a radiation dosage on a percentage basis. LD50/8 and LD50/30 values were estimated by extrapolation to the dosage scale.
(§3) A radiomodifying effect was evaluated by a dose change factor (DCF) calculated from the ratio of LD₅₀ in test to LD₅₀ in control.

male mice F1(CBA57BL) = conditions: single administration
Experimental: Tests were carried out on male hybrid mice F₁(CBAxC₅₇BL). About two thousands animals have been used in tests.
Acute toxicity off the invention compounds was determined in experiments on mice after a single intravenous and intraperitoneal administration. Tested compounds were injected in the form of 0.1 to 1.0 wt% solutions by syringe with the entry needle. Intraperitoneal route was effected by administering a suspension of the compounds in 1% starch size using a syringe and a metal probe. […] Toxicity doses were calculated and statistically processed via Litchfield-Wilcoxon technique modified by Z.Rott.

mice [2] = experiment: Radiomodifying effect under five-fold γ-irradiation at 24 hours intervals; type: in vivo; conditions: 10 mg/kg, 15 min after each fraction
Experimental: as §1, §2, §3

mice [3] = experiment: Radiomodifying effect under two-fold γ-irradiation at 4 hours intervals; type: in vivo; conditions: for Survival rate: 1st fraction 4.0 Gr; for DCF: two-fold irradiation
Experimental: as §1
A survival rate was determined on the 8th and 30th day of observation. From the data obtained were derived the curves illustrating a dependence of the survival rate upon a radiation dosage on a percentage basis.
as §3

[4] = 10mg/kg 15 min after irradiation (Table 7)
[5] = 10mg/kg 15 min after irradiation, irradiation dose 7.5 Gr
[6] = 10mg/kg 15 min after irradiation, irradiation dose 8.0 Gr
[7] = 10mg/kg 15 min after irradiation, irradiation dose 8.5 Gr
[8] = system Ephazole/0.9% NaCl, calculated from literature equilibrium constants

Substance	DCF [1, 4]	Survival rate [1, 5] [%]	Survival rate [1, 6] [%]	Survival rate [1, 7] [%]	LD50/30 [1] [Gr]	LD10 (male mice F1(CBA57BL); i.v.) [mg/kg]	LD50 (male mice F1(CBA57BL); i.v., observed for a month)	further results
N-methyl-N-(2-phenyl-2-hydroxypropyl)ammonium palladium tetrachloride [Compound 4]	1.07	80	20	10	7.75	75	100(109.5-91.5) mg/kg	
N-[1,3-dihydroxy-1-(4-nitrophenyl)-prop-2-yl]ammonium palladium tetrachloride [Compound 3]	1.07	60	30	0	7.7	70	90(97.5-82.5) mg/kg	
N-methyl-N-(1-phenyl-1-hydroxy-prop-2-yl)ammonium palladium tetrachloride [Ephazole]						110		DCF (mice [2]): 1.47; Survival rate (mice [3]; 10 mg/kg i.v. within 15 min after 1st and 2nd fraction, 2nd fraction 5.0 Gr): 90%; Survival rate (mice [3]; 10 mg/kg i.v. within 15 min after 1st and 2nd fraction, 2nd fraction 5.5 Gr): 60%; Survival rate (mice [3]; 10 mg/kg i.v. within 15 min after 1st and 2nd fraction, 2nd fraction 6.0 Gr): 20%; DCF (mice [3]; 10 mg/kg i.v. within 15 min after 1st and 2nd fraction): 1.11; Survival rate (mice [3]; 10 mg/kg i.v. within 15 min after 1st fraction, 2nd fraction 4.5 Gr): 90%; Survival rate (mice [3]; 10 mg/kg i.v. within 15 min after 1st fraction, 2nd fraction 5.0 Gr): 70%; Survival rate (mice [3]; 10 mg/kg i.v. within 15 min after 1st fraction, 2nd fraction 5.5 Gr): 30%; DCF (mice [3]; 10 mg/kg i.v. within 15 min after 1st fraction): 1.06; time for using a 0.4% solution (0.4% solution in isotonic saline medium, 25°C): not over one hour; temperature over which solutions could not be heated (0.9% NaCl solutions tested at 4, 25, 40 and 100°C): ≤ 40 °C; content of [PdCl₃(H₂O)]⁻ anion under equilibrium conditions [8]: 21.3%; content of [PdCl₄]²⁻ under equilibrium conditions [8]: 78.7%; state in aqueous solutions (water as vehicle, 20 mg/10 ml and 40 mg/10 ml): profound hydrolysis; LD10 (male mice F1(CBA57BL); i.p.): 180 mg/kg
N-methyl-N-[2-hydroxy-2(4-nitrophenyl)ethyl]ammonium palladium tetrachloride [Compound 2]	1.10	70	30		8.0			Survival rate ([1]; 10mg/kg 15 min after irradiation, irradiation dose 7.0 Gr): 90%; LD10 (male mice F1(CBA57BL); i.g.): 63 mg/kg; LD50 (male mice F1(CBA57BL); i.g.): 95(107-83) mg/kg
N-ethyl-N-[2-hydroxy-2(4-hydroxyphenyl)ethyl]ammonium palladium tetrachloride [Compound 5]	1.07	70	20	0	8.25	10	15(16.8-13.2) mg/kg	DCF ([1]; 10mg/kg 15 min before irradiation (Table 7)): 1.14; Survival rate ([1]; 10mg/kg 15 min before irradiation, irradiation dose 7.5 Gr): 90%; Survival rate ([1]; 10mg/kg 15 min before irradiation, irradiation dose 8.0 Gr): 70%; Survival rate ([1]; 10mg/kg 15 min before irradiation, irradiation dose 8.5 Gr): 30%; LD50/30 ([1]; listed as compound 5): 7.75 Gr
